The subject of one data set is Menkes disease subjects. In words: Long term follow up of Menkes disease patients treated with copper histidinate (survival). The conditions noted are these: early treatment vs untreated historical controls. The data set is classed as in vivo, human. As to the method: During the study patients were administered does of copper histidinate as follows: 1450 μg subcutaneous BID in infants up to 12 months of age, and 1450 μg subcutaneous QD for infants and children older than 12 months.
This study was designed as a long term follow up on patients previously identified and/or enrolled in previous studies for the treatment of Menkes disease with copper histidinate and untreated patients to determine survival, neurological development, quality of life status and adverse events. This study followed the patients from the previous examples for long term follow up.
Patients previously enrolled in clinical trials for the treatment of Menkes disease with copper histidinate were assessed for survival status, neurological development status and quality of life. No drug was be administered during this study.

The subject of data set [1] is classic Menkes disease patients. In words: Subcutaneous copper histidinate treatment of Menkes patients (serum copper, renal safety monitoring). The data set is classed as in vivo, human. The following applies: 1450 μg SC BID younger than 12 months, QD older than 12 months. The text has this: The purpose of this study was to allow currently enrolled participants to complete a three-year course of subcutaneous copper histidinate treatment under a previous protocol. It was hypothesized that subcutaneous injections of this drug will raise serum copper levels and ceruloplasmin levels in enrolled participants, improve neurodevelopmental and neurological outcomes, and reduce mortality compared to untreated affected subjects. The broad overall hypothesis of this treatment study is that subcutaneous copper histidinate injections will normalize circulating copper levels and provide health benefits to individuals with copper deficiency due to genetic abnormalities such as classic Menkes disease or which is unexplained. The trial represents an open-label design in which all enrolled subjects receive subcutaneous injections of copper histidinate. Immediate potential benefits of Copper Histidinate treatment in classic Menkes disease include protection against seizure activity and accrual of neurodevelopmental skills in an age-appropriate fashion. Long-term potential benefits include enhanced lifespan and quality of life, as noted in other subjects with classic Menkes disease treated with Copper Histidinate. […]

For data set [2] the test system is unchanged. The conditions noted are these: cited from earlier work.

Turning to `N[C@@H](Cc1cnc[nH]1)C(=O)[O-].N[C@@H](Cc1cnc[nH]1)C(=O)[O-].[Cu+2]` [copper histidinate, (2S)-2-amino-3-(1H-imidazol-5-yl) propanoic acid, Copper], in the data set with Menkes disease subjects, the “reduction in the risk of death” value is on record as around 80%. In addition, the “hazard ratio (risk of death)” value in the data set with Menkes disease subjects (p<0.00001) is listed as 0.21. For the same molecule, the “serum copper levels under the standard dosing regimen” value in data set [1] was “maintains serum copper levels in the normal range”. In data set [2], the “renal tubular injury caused by copper histidinate” value is on record as “reversible”.

The values above are taken from patent US20240139236A1, “COPPER HISTIDINATE COMPOSITIONS AND USES THEREOF” (Cyprium Therapeutics, Inc., priority 2021, published 2024).
